In article PMC6320337, “Hepatocyte growth factor activator inhibitor-2 stabilizes Epcam and maintains epithelial organization in the mouse intestine” (Communications Biology, 2019):

Columns and labels:
matriptase = target: T1, matriptase (Homo sapiens, UniProt Q9Y5Y6); test: fluorescent kinetic enzyme inhibition assay; format: biochemical
T1 construct: gene ST14; recombinant catalytic domain (#3946-SEB, R&D Systems)
T1 sequence (Q9Y5Y6 615-855 limits assumed): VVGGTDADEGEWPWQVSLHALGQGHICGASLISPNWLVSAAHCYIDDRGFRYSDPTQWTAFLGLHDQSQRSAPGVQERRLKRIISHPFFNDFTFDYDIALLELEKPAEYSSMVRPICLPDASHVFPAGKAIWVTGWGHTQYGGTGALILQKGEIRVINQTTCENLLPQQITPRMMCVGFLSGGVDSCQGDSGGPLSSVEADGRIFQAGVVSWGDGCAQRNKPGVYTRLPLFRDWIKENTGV

hepsin = target: T2, hepsin (Homo sapiens, UniProt P05981); test: fluorescent kinetic enzyme inhibition assay
T2 construct: gene HPN
T2 sequence (P05981 45-162 limits assumed): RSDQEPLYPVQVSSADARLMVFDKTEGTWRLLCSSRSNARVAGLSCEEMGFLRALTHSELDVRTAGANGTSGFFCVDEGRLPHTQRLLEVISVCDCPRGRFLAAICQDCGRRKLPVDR
T2 sequence (P05981 163-417 limits assumed): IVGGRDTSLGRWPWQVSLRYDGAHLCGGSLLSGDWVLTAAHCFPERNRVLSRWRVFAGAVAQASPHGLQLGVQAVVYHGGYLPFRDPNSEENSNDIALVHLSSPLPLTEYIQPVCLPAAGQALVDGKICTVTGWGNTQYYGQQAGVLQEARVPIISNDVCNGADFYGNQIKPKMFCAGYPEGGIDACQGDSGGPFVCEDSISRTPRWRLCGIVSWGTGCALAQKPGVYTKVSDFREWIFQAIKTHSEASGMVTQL

`N=C(N)NCCC[C@H](NC(=O)[C@H](CC(N)=O)NC(=O)OCC1c2ccccc2-c2ccccc21)C(=O)c1nc2ccccc2s1` [ZFH7185-3] showed a Ki (matriptase) of 106 nM and a Ki (hepsin) of 1.7 nM.
With `N=C(N)NCCC[C@H](NC(=O)CNC(=O)OCC1c2ccccc2-c2ccccc21)C(=O)c1nc2ccccc2s1` [ZFH7185-8] the Ki (matriptase) was 0.13 nM and the Ki (hepsin) was 831 nM.
